Data on 2 compounds can be found in patent US20220280644A1, “"TRPswitch" - A STEP FUNCTION CHEMO-OPTOGENETIC LIGAND” (UNIVERSITY OF UTAH RESEARCH FOUNDATION, priority 2019, published 2022).

A short description of data set [1]: Z→E thermal isomerisation kinetics. It is filed as physicochemical. As for the experimental part: In order to determine the Z→E thermal isomerisation kinetics in DMSO-d6 a ˜20 mM solution of the relevant compound was irradiated using a Luzchem LZC-4V photoreactor fitted with 12×8 W LZC-420 lamps (420 nm peak emission) until no further change was observable by ^1H NMR. For 30% water:DMSO samples, a 15 μM solution of the relevant compound was irradiated in a quartz cuvette using 365 nm LEDs (3×800 mW Nichia NCSU276A) until no further change was observed by UV-Vis spectroscopy. Compounds (˜25 μM solutions in DMSO) were treated analogously. In the case of compounds studied by NMR, the change in Z-isomer percentage was followed as a function of time through integration of the relevant peaks. […]
For data collected via ^1H NMR, the natural log of the Z isomer concentration was plotted against time to yield a straight line implying first order kinetics. The gradient of this line was used to determine the rate constant for Z→E conversion from which the thermal half-life could be calculated:
For data collected via UV-Vis Spectroscopy, absorbance data at a fixed wavelength was fitted using the following, first order equation: […]
where k represents the rate constant; A∞, A0 and At are the absorbances of the pure E-state, Z-rich state, and time t, respectively. […]

Data set [2] can be described thus: UV-Vis absorbance, E/Z isomerization with violet and green light. In kind it is physicochemical. Particulars: UV-Vis absorbance in DMSO. As for the experimental part: Compounds were dissolved in DMSO at 250 μM and 260 μM for TRPswitch-A and TRPswitch-B, respectively and UV-Vis absorbance was measured using a NanoDrop 1000 (Thermo Scientific).
Data set [3] is described as follows: Aqueous solubility observation. It is filed as physicochemical.
Data set [4] deals with wild-type zebrafish larvae. The data set is described as follows: Behavioral assay: light-induced motion response of wild-type larvae. It is filed as in vivo, Zebrafish (Danio rerio). Particulars: DABCO, singlet oxygen quencher. As for the experimental part:
A total of 1,000 compounds were selected from the ChemBridge Corp. catalog. Compounds were dissolved in DMSO at a stock concentration of 1 μg/μL (˜1.5 mM). The library was screened at a 1:100 dilution in E3 solution for a final concentration of ˜15 μM. Negative controls were treated with an equal volume of DMSO. Groups of 3 larvae at 3 days post fertilization (dpf) were distributed into the wells of 96-well clear bottom black microplates (07-200-567; Fisher Scientific) in 150 μL E3 before the addition of small molecules. Stock solutions of compounds were added directly to zebrafish in the wells of a 96 well plate (Corning 3631), mixed, and allowed to incubate for 1 h in the dark at 28.5° C. prior to behavioral evaluation in the behavioral assay. Ordering information: 1 (5533696; ChemBridge); 3 (5538408; ChemBridge).
Larvae in each of the wells were exposed to four 1 second flashes of light stimulus in the following order: 450-500 nm (WL1), 415-455 nm (WL2), 352-402 nm (WL3), white light (WL4), with a 5 second inter-stimulus interval. Digital video recording was performed for 5 seconds before the first light stimuli and continued throughout the stimulation sequence. Band pass filters (Semrock FF02-475/50, FF02-435/40, FF01-377/50) were used to restrict the excitation light to the indicated wavelengths. […] 290 frames of digital video were recorded per well at 10 FPS using an EMCCD camera (C9100; Hamamatsu) mounted on an inverted compound microscope (AxioObserver A1; Zeiss) with a NA 0.03 1.25× objective and a barrier with a 0.7 mm diameter opening to restrict light scattering to the sample. MetaMorph software (Molecular Devices) was used to control the execution of TTL signals and camera capture using the built-in stream acquisition with trigger function. Each video was saved for review. Light stimuli were generated with an ozone free 300-Watt xenon bulb housed in a Lambda LS illuminator (Sutter Instruments). A dichroic mirror (T510LPXRXT; Chroma) was used for appropriate excitation of samples and bright field acquisition. Schott longpass absorption glass (RG610; Chroma) was added in the transmitted light path to reduce unwanted excitation to the well and to provide sufficient light for video recording. All behavioral experiments were conducted at room temperature. […]
To analyze digital video recordings, custom MetaMorph software scripts were used to automatically threshold the video to identify the area of larvae in each frame. Threshold images of the frames after each light activation event were overlaid to calculate a new combined threshold area. The motion index was calculated as the percentage change between the threshold area in the frame right before light activation and the new combined threshold area. This motion index correlates with the overall amount of motion in the well.

In data set [5] the test system is wild-type zebrafish larvae. To be noted: reference [23]; cited from earlier work.
In another data set the test system is Trpa1b mutant larvae. To be noted: previously identified; cited from earlier work.

In the case of `Cc1nn(C)c(C)c1/N=N/c1ccc(NC(=O)c2ccco2)cc1NC(=O)c1ccco1` [Compound 8, (E)-N,N′-(4-((1,3,5-trimethyl-1H-pyrazol-4-yl)diazenyl)-1,3-phenylene)bis(furan-2-carboxamide)], the “thermal half-lives” value in data set [1] was “long thermal half-lives”. Also, the “E/Z photoswitching with violet and green light” value in data set [2] was “quantitative photoswitching in both directions”. Besides, the aqueous solubility result in data set [3] is “some aqueous solubility issues”.

Turning to `Cc1cc(/C=C2/SC(=S)NC2=O)c(C)n1-c1cccnc1` [optovin], the “effect of DABCO on light-induced motion response” value in data set [4] was “abolished”. Moreover, in data set [5], the “suppression of response by DABCO” value was “completely suppress”. Besides, the “activity in Trpa1b mutant zebrafish” value in the data set on Trpa1b mutant larvae is given as “abolished”.
